Patent publication US20060100210A1, “Methods for treatment of scleroderma” (priority 2001, published 2006)
Where a name gives a salt, the structure may show the parent alone. Read-outs that look alike come from different tables or passages of the source.

Legend:
[1] = biological target: T1, GST-cGB-PDE5 fusion protein (cGMP binding sites of human PDE5A) (Homo sapiens, UniProt O76074); experiment: cGMP binding assay with GST-cGB-PDE5 fusion protein; settings: for competition with cGMP in binding of GST-cGB-PDE5: high concentration (100 μM) vs cGMP (2 μM)
T1 construct: made in house; host or cells: E. coli BL21 (DE3)
From the text: RT-PCR method is used to obtain the cGB domain of PDE5 with forward and reverse primers designed from bovine PDE5A cDNA sequence (McAllister-Lucas L. M. et al, J. Biol. Chem. 268, 22863-22873, 1993) and the selection among PDE 1-10 families. 5′-3′, Inc. kits for total RNA followed by oligo (dT) column purification of mRNA are used with HT-29 cells. […] It is then cloned into pGEX-5×-3 […] (GST) fusion vector (Pharmacia Biotech) with tac promoter, and EcoRI and XhoI cut sites. The fusion vector is then transfected into E. Coli BL21 (DE3) bacteria (Invitrogen). The transfected BL21 bacteria is grown to log phase, and then IPTG is added as an inducer. The induction is carried at 20° C. for 24 hrs. The bacteria are harvested and lysed. The soluble cell lysate is incubated with GSH conjugated Sepharose 4B (GSH-Sepharose 4B). The GST-cGB-PDE5 fusion protein can bind to the GSH-Sepharose beads, and the other proteins are washed off from beads with excessive cold PBS.
The vials are counted on a Beckman LS 6500 scintillation counter.
The quenching by filter membrane or other debris are also calibrated.

[2] = in vivo; cited from earlier work
U937 cells = experiment: Apoptosis induction of U937 cells (active caspase 3, indirect immunofluorescence); assay type: cell-based; settings: 1 μM, 24 hours
Protocol: The presence of PDE2 and PDE5 protein within U937 cells was confirmed by indirect immunofluorescence (IIF). U937 cells were cultured as above. Two U937 cultures, one grown in the presence of 5 nM TPA for 48 hours and one grown in normal media were processed. All cultures were collected by centrifugation (Shandon Cytospin, 2 minutes @ 600 rpm) onto poly-L lysine-coated slides and immediately fixed in fresh 3% paraformaldehyde buffered in PBS for 10 minutes. Adherent cultures were grown on coverslips and fixed as above. Cells were permeablized in 0.2% triton-100 for 2 minutes. Slides were blocked with blocking buffer (5% goat serum, 5% glycerol, 1% gelatin from cold water fish skin and 0.04% NaN3 in PBS) for 1 hour at room temperature.
Slides were then incubated for 1 hour at 37° C. in a humid chamber with antibodies specific for PDE2 (generated in a sheep against the peptide […]) or PDE5 (generated in sheep against the peptide […]). The PDE5 antibody was used at a dilution of 1:200 and the PDE2 antibody was used at a dilution of 1:100. All dilutions were performed in blocking buffer. […]
The level of apoptosis in U937 cells was quantified by scoring 500 consecutive cells for the presence of active caspase 3. […]

[3] = Seven-day dose-range finding study in rats; assay type: in vivo; settings: 7 days, 500 mg/kg/day
[4] = Long-term safety assessment, 91 consecutive days, rats; assay type: in vivo; settings: 91 days, 200 and 500 mg/kg/day
From the text: These changes were not associated with any gross clinical abnormality.

T1 sequence (O76074 46-539 limits assumed): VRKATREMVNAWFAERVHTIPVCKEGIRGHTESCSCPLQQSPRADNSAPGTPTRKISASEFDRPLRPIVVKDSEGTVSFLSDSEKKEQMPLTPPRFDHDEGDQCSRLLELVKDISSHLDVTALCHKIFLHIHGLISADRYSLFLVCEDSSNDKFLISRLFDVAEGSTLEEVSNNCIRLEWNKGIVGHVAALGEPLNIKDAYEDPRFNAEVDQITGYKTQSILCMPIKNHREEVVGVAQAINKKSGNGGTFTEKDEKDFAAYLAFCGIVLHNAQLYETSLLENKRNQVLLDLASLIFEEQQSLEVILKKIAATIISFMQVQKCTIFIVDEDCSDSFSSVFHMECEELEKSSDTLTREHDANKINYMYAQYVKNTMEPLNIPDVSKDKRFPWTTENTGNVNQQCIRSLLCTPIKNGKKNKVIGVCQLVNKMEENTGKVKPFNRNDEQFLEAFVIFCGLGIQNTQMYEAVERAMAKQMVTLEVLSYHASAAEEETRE

Nc1nc2c(nc(Br)n2[C@@H]2O[C@@H]3COP(=O)(O)O[C@H]3[C@H]2O)c(=O)[nH]1 [Example 8-bromo-cGMP, 8-bromo-cGMP]
competition with cGMP in binding of GST-cGB-PDE5 [1]: can partially compete with cGMP

interferon gamma: interferon, drug that affects certain factors in the immune system
skin symptoms [2]: modest improvement in skin symptoms

CC1=C(CC(=O)NCc2ccccc2)c2cc(F)ccc2/C1=C\c1ccncc1 [Compound 38, (Z)-5-Fluoro-2-Methyl-(4-Pyridylidene)-3-(N-Benzyl) Indenylacetamide Hydrochloride]
apoptosis by presence of active caspase 3 (FIG. 8) (U937 cells): undergoing apoptosis | treatment-related effects [3]: limited to an increase in absolute and relative liver weights in female rats | competition with cGMP in binding of GST-cGB-PDE5 (cGMP binding sites) ([1]; 3H-cGMP 2 μM, 22° C., 1 hour): does not bind to the cGMP-binding site of PDE5 | microscopic findings [4]: slight hepatocellular hypertrophy at 200 and 500 mg/kg/day groups, follicular cell hypertrophy at 500 mg/kg/day and increase in accumulation of hyalin droplets in the kidneys at 200 and 500 mg/kg/day group

CCCCOC1C2OP(=O)(O)OCC2OC1n1cnc2c(=O)[nH]c(N)nc21 (stereo not shown) [2′-O-butyl-cGMP]
competition with cGMP in binding of GST-cGB-PDE5 (cGMP binding sites) ([1]; 3H-cGMP 2 μM, 22° C., 1 hour): did not compete with cGMP in binding

O=C(O)C1CCN(c2nc(NCc3ccc4c(c3)OCO4)c3cc(Cl)ccc3n2)CC1 [Example E4021]
competition with cGMP in binding of GST-cGB-PDE5 (cGMP binding sites) ([1]; 3H-cGMP 2 μM, 22° C., 1 hour): None of the PDE5 inhibitors showed any competition with cGMP

CSc1ccc(/C=C2/C(C)=C(CC(=O)O)c3cc(F)ccc32)cc1 [Sulindac sulfide, sulindac sulfide]
competition with cGMP in binding of GST-cGB-PDE5 (cGMP binding sites) ([1]; 3H-cGMP 2 μM, 22° C., 1 hour): None of the PDE5 inhibitors showed any competition with cGMP

O=c1[nH]cnc2c1ncn2[C@@H]1O[C@@H]2COP(=O)(O)O[C@H]2[C@H]1O [Cyclic IMP, cyclic IMP]
competition with cGMP in binding of GST-cGB-PDE5 [1]: can partially compete with cGMP

Nc1ncnc2c1ncn2[C@@H]1O[C@@H]2COP(=O)(O)O[C@H]2[C@H]1O [Cyclic AMP]
competition with cGMP in binding of GST-cGB-PDE5 (cGMP binding sites) [1]: did not compete with cGMP in binding

CC1=C(CC(=O)O)c2cc(F)ccc2/C1=C\c1ccc(S(C)(=O)=O)cc1 [exisulind]
competition with cGMP in binding of GST-cGB-PDE5 (cGMP binding sites) ([1]; 3H-cGMP 2 μM, 22° C., 1 hour): None of the PDE5 inhibitors showed any competition with cGMP

Nc1ccn([C@@H]2O[C@@H]3COP(=O)(O)O[C@H]3[C@H]2O)c(=O)n1 [cCMP, cyclic CMP]
competition with cGMP in binding of GST-cGB-PDE5 (cGMP binding sites) ([1]; 3H-cGMP 2 μM, 22° C., 1 hour): did not compete with cGMP in binding

CCCCOC1C2OP(=O)(O)OCC2OC1n1cnc2c(N)ncnc21 (stereo not shown) [2′-O-butyl-cAMP]
competition with cGMP in binding of GST-cGB-PDE5 (cGMP binding sites) ([1]; 3H-cGMP 2 μM, 22° C., 1 hour): did not compete with cGMP in binding

O=c1ccn([C@@H]2O[C@@H]3COP(=O)(O)O[C@H]3[C@H]2O)c(=O)[nH]1 [cUMP, cyclic UMP]
competition with cGMP in binding of GST-cGB-PDE5 (cGMP binding sites) ([1]; 3H-cGMP 2 μM, 22° C., 1 hour): did not compete with cGMP in binding

CCCOc1ccccc1-c1nc2nn[nH]c2c(=O)[nH]1 [zaprinast]
competition with cGMP in binding of GST-cGB-PDE5 (cGMP binding sites) ([1]; 3H-cGMP 2 μM, 22° C., 1 hour): None of the PDE5 inhibitors showed any competition with cGMP
